The source of these data is US12077503B2, “Substituted cyclic amides and their use as herbicides” (FMC CORPORATION, priority 2015, dated 2024).

Common to all, as to assay type: in vivo
In assay [1] the test system is Kochia (Kochia scoparia). In words: Test A preemergence. The conditions noted are these: Bassia scoparia, pre-emergence, 240 h, preemergence, read-out: Plant response rating, Kochia; for pest or weed control at 125 g/ha: 125 g ai/ha, visual rating after approx. 10 d, 0 to 100 scale where 0 is no effect and 100 is complete control; for pest or weed control at 500 g/ha: 500 g ai/ha, 0 to 100 scale, 0 = no effect, 100 = complete control. The method in brief: (§1)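 Seeds sprayed preemergence with a directed soil spray, or plants at 2 to 10 cm height and one- to two-leaf stage sprayed postemergence, with test chemicals in a non-phytotoxic solvent mixture containing surfactant, in loam soil–sand blend. Injury rated visually against untreated controls after about 10 d in greenhouse, 0 (no effect) to 100 (complete control).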

Assay [2] relates to barnyardgrass (Echinochloa crus-galli). In words: Test A preemergence. The conditions noted are these: Echinochloa crus-galli, pre-emergence, 240 h, preemergence, read-out: Plant response rating, Barnyardgrass; for pest or weed control at 125 g/ha: 125 g ai/ha, visual rating after approx. 10 d, 0 to 100 scale where 0 is no effect and 100 is complete control; for pest or weed control at 500 g/ha: 500 g ai/ha, 0 to 100 scale, 0 = no effect, 100 = complete control. The method in brief: as §1

The test system of assay [3] is giant foxtail (Setaria faberii). In words: Test A preemergence. The conditions noted are these: Setaria faberi, pre-emergence, 240 h, preemergence, read-out: Plant response rating, Foxtail, Giant; for pest or weed control at 125 g/ha: 125 g ai/ha, visual rating after approx. 10 d, 0 to 100 scale where 0 is no effect and 100 is complete control; for pest or weed control at 500 g/ha: 500 g ai/ha, 0 to 100 scale, 0 = no effect, 100 = complete control. The method in brief:
as §1

Assay [4] has as its system pigweed (Amaranthus retroflexus). In words: Test A preemergence. Conditions: Amaranthus retroflexus, pre-emergence, 240 h, preemergence, read-out: Plant response rating, Pigweed; for pest or weed control at 125 g/ha: 125 g ai/ha, visual rating after approx. 10 d, 0 to 100 scale where 0 is no effect and 100 is complete control; for pest or weed control at 500 g/ha: 500 g ai/ha, 0 to 100 scale, 0 = no effect, 100 = complete control.

Assay [5] concerns ragweed (common ragweed, Ambrosia elatior). The assay can be described thus: Test A preemergence. Conditions: Ambrosia artemisiifolia, pre-emergence, 240 h, preemergence, read-out: Plant response rating, Ragweed; for pest or weed control at 125 g/ha: 125 g ai/ha, visual rating after approx. 10 d, 0 to 100 scale where 0 is no effect and 100 is complete control; for pest or weed control at 500 g/ha: 500 g ai/ha, 0 to 100 scale, 0 = no effect, 100 = complete control. The method in brief:
as §1

For assay [6], the system named is ryegrass, Italian (Italian ryegrass, Lolium multiflorum). In words: Test A preemergence. Conditions: Lolium multiflorum, pre-emergence, 240 h, preemergence, read-out: Plant response rating, Ryegrass, Italian; for pest or weed control at 125 g/ha: 125 g ai/ha, visual rating after approx. 10 d, 0 to 100 scale where 0 is no effect and 100 is complete control; for pest or weed control at 500 g/ha: 500 g ai/ha, 0 to 100 scale, 0 = no effect, 100 = complete control. The method in brief:
as §1

Assay [7] concerns Galium (catchweed bedstraw, Galium aparine). The assay can be described thus: Test A postemergence. Conditions: Galium, post-emergence, 240 h, 125 g ai/ha, postemergence; visual injury after approximately 10 d; 0 to 100 scale (0 no effect, 100 complete control); read-out: Plant response rating, Galium. In short, it runs like this:
as §1

Assay [8] has as its system Kochia (Kochia scoparia). The assay can be described thus: Test A postemergence. Conditions: Bassia scoparia, post-emergence, 240 h, 125 g ai/ha, postemergence; visual injury after approximately 10 d; 0 to 100 scale (0 no effect, 100 complete control); read-out: Plant response rating, Kochia. The method in brief: as §1
For assay [9], the system named is barnyardgrass (Echinochloa crus-galli). The assay can be described thus: Test A postemergence. Conditions: Echinochloa crus-galli, post-emergence, 240 h, 125 g ai/ha, postemergence; visual injury after approximately 10 d; 0 to 100 scale (0 no effect, 100 complete control); read-out: Plant response rating, Barnyardgrass. The method in brief:
as §1

In assay [10] the test system is blackgrass (Alopecurus myosuroides). In words: Test A postemergence. Conditions: Alopecurus myosuroides, post-emergence, 240 h, 125 g ai/ha, postemergence; visual injury after approximately 10 d; 0 to 100 scale (0 no effect, 100 complete control); read-out: Plant response rating, Blackgrass. The method in brief: as §1
The next assay deals with corn (Zea mays). The assay can be described thus: Test A postemergence. Conditions: Zea mays, post-emergence, 240 h, 125 g ai/ha, postemergence; visual injury after approximately 10 d; 0 to 100 scale (0 no effect, 100 complete control). The method in brief:
as §1

Assay [11] relates to giant foxtail (Setaria faberii). The assay can be described thus: Test A postemergence. Conditions: Setaria faberi, post-emergence, 240 h, 125 g ai/ha, postemergence; visual injury after approximately 10 d; 0 to 100 scale (0 no effect, 100 complete control); read-out: Plant response rating, Foxtail, Giant. The method in brief: as §1
In assay [12] the test system is pigweed (Amaranthus retroflexus). In words: Test A postemergence. Conditions: Amaranthus retroflexus, post-emergence, 240 h, 125 g ai/ha, postemergence; visual injury after approximately 10 d; 0 to 100 scale (0 no effect, 100 complete control); read-out: Plant response rating, Pigweed. In short, it runs like this:
as §1

The test system of assay [13] is ragweed (common ragweed, Ambrosia elatior). The assay can be described thus: Test A postemergence. Conditions: Ambrosia artemisiifolia, post-emergence, 240 h, 125 g ai/ha, postemergence; visual injury after approximately 10 d; 0 to 100 scale (0 no effect, 100 complete control); read-out: Plant response rating, Ragweed. In short, it runs like this:
as §1

Assay [14] relates to ryegrass, Italian (Italian ryegrass, Lolium multiflorum). The assay can be described thus: Test A postemergence. Conditions: Lolium multiflorum, post-emergence, 240 h, 125 g ai/ha, postemergence; visual injury after approximately 10 d; 0 to 100 scale (0 no effect, 100 complete control); read-out: Plant response rating, Ryegrass, Italian. The method in brief:
as §1

As to `CCc1cc(CC)cc([C@H]2CN(C)C(=O)[C@@H]2C(=O)Nc2cccc(F)c2F)c1` [Compound 736], the pest or weed control at 125 g/ha came to 20% in the assay on Kochia (Kochia scoparia) [1]; 90% in assay [2]; 90% in [3]; 0% in [4]; 0% in assay [5]; 90% in assay [6]. The pest or weed control at 125 g/ha worked out at 50% in [7]; 20% with Kochia (Kochia scoparia) [8]; 90% in assay [9]; 60% in assay [10]; 90% in assay [11]; 20% in assay [12]. In addition, the pest or weed control at 125 g/ha was determined as 0% in assay [13] and 80% in assay [14]. In addition, the pest or weed control at 500 g/ha stood at 70% in the assay on Kochia (Kochia scoparia) [1]; 90% in assay [2]; 90% in assay [3]; 20% in [4]; 20% in [5]; 90% in assay [6]. In the assay with corn (Zea mays), this compound came in with a Corn plant response rating (crop injury, 0 = no effect, 100 = complete kill) at 125 g/ha of 90%.
Turning to `CN1C[C@H](c2ccc(F)c(OC(F)(F)C(F)F)c2)[C@@H](C(=O)Nc2ccccc2F)C1=O` [Compound 740], the pest or weed control at 125 g/ha in the assay with Kochia (Kochia scoparia) [1] is 80%; in [2], 90%; in assay [3], 100%; in [4], 70%; in [5] it was 40%; in assay [6], 60%. Moreover, the pest or weed control at 125 g/ha in assay [7] was found to be 50%; with Kochia (Kochia scoparia) [8] it was 40%; in [9] it was 90%; in [10], 30%; in [11], 90%; in assay [12], 40%. Besides, the pest or weed control at 125 g/ha in assay [13] turned out to be 0%; in assay [14], 50%. In addition, the pest or weed control at 500 g/ha stood at 90% with Kochia (Kochia scoparia) [1]; 90% in assay [2]; 100% in [3]; 80% in assay [4]; 50% in assay [5]; 80% in assay [6]. Further, the Corn plant response rating (crop injury, 0 = no effect, 100 = complete kill) at 125 g/ha in the assay with corn (Zea mays) turned out to be 70%.
In the case of `CN1C[C@H](c2cccc(C(F)(F)F)c2)[C@@H](C(=O)Nc2ccccc2C2CC2)C1=O` [Compound 749], the pest or weed control at 125 g/ha with Kochia (Kochia scoparia) [1] turned out to be 0%; in assay [2] it was 0%; in [3] it was 50%; in assay [4] it was 0%; in [5], 0%; in [6] it was 0%. Besides, the pest or weed control at 125 g/ha (in assay [7]; with Kochia (Kochia scoparia) [8]; in assay [9]; in [10]; in assay [11]; in assay [12]) was 0% throughout. Moreover, the pest or weed control at 125 g/ha in assay [13] and in [14] was 0% each time. The pest or weed control at 500 g/ha with Kochia (Kochia scoparia) [1] was 20%; in assay [2], 20%; in assay [3] it was 90%; in assay [4], 0%; in assay [5] it was 0%; in [6] it was 20%. The compound also returned a Corn plant response rating (crop injury, 0 = no effect, 100 = complete kill) at 125 g/ha in the assay on corn (Zea mays) of 0%.
Consider `O=C1NC[C@H](c2csc3ccccc23)[C@H]1C(=O)Nc1ccccc1F` [Compound 750], for which the pest or weed control at 125 g/ha with Kochia (Kochia scoparia) [1] turned out to be 0%; in assay [2] it was 80%; in assay [3] it was 50%; in assay [4], 0%; in [5] it was 0%; in [6], 0%. For the same compound, the pest or weed control at 125 g/ha turned out to be 0% in assay [7]; 0% with Kochia (Kochia scoparia) [8]; 70% in assay [9]; 0% in assay [10]; 20% in assay [11]; 0% in assay [12]. In addition, the pest or weed control at 125 g/ha in [13] and in [14] was 0% in each case. Besides, the pest or weed control at 500 g/ha with Kochia (Kochia scoparia) [1] is 0%; in assay [2] it was 90%; in [3], 90%; in assay [4], 0%; in assay [5], 0%; in assay [6], 20%. Further, in the assay on corn (Zea mays), the Corn plant response rating (crop injury, 0 = no effect, 100 = complete kill) at 125 g/ha was found to be 0%.
In the case of `O=C1NC[C@H](c2csc3ccccc23)[C@H]1C(=O)Nc1cccc(F)c1F` [Compound 751], the pest or weed control at 125 g/ha in the assay on Kochia (Kochia scoparia) [1] came to 20%; in assay [2], 90%; in [3], 80%; in assay [4] it was 0%; in [5] it was 20%; in assay [6], 0%. Moreover, the pest or weed control at 125 g/ha was 40% in [7]; 0% with Kochia (Kochia scoparia) [8]; 60% in [9]; 20% in assay [10]; 30% in assay [11]; 0% in [12]. In addition, the pest or weed control at 125 g/ha in assay [13] and in [14] was 0% each time. Moreover, the pest or weed control at 500 g/ha was found to be 90% in assay [2]; 90% in assay [3]; 0% in assay [4]; 40% in assay [5]; 20% in assay [6]. This compound also displayed a Corn plant response rating (crop injury, 0 = no effect, 100 = complete kill) at 125 g/ha in the assay with corn (Zea mays) of 0%.
